Ki data for four molecules are collected here from patent US8247557B2, “IAP inhibitors” (Genentech, Inc., priority 2005, dated 2012).

The structures appear in SMILES notation.

The target of the assay is T1, MLXBIR3SG (Homo sapiens, UniProt Q96CA5, S150G).
T1 construct: His6 tag (MGSSHHHHHH, followed by linker with LVPRGS thrombin site) (N)
T1 sequence (Q96CA5 with tags, fused parts or gaps S150G): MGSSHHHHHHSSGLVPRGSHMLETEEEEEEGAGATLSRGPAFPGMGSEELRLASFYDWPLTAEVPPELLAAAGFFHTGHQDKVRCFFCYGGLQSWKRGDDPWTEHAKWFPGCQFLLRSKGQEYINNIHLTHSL
Briefly: Fluorescence Polarization Peptide Binding Assay (competition with AVP-diPhe-FAM probe). To be noted: MLXBIR3SG at 30 nM, 5 nM AVP-diPhe-FAM probe, Ki determined from IC50 values, unit inferred. As to the method: In the following experiments was used a chimeric BIR domain referred to as MLXBIR3SG in which 11 of 110 residues correspond to those found in XIAP-BIR3, while the remainder correspond to ML-IAP-BIR. […] The improved caspase-9 inhibition of the chimeric BIR domain MLXBIR3SG has been correlated with increased inhibition of doxorubicin-induced apoptosis when transfected into MCF7 cells.
Polarization experiments were performed on an Analyst HT 96-384 (Molecular Devices Corp.) according to the procedure of Keating, S. M., Marsters, J, Beresini, M., Ladner, C., Zioncheck, K., Clark, K., Arellano, F., and Bodary., S. (2000) in Proceedings of SPIE: In Vitro Diagnostic Instrumentation (Cohn, G. E., Ed.) pp 128-137, Bellingham, Wash. Samples for fluorescence polarization affinity measurements were prepared by addition of 1:2 serial dilutions starting at a final concentration of 5 μM of MLXBIR3SG in polarization buffer (50 mM Tris [pH 7.2], 120 mM NaCl, 1% bovine globulins 5 mM DTT and 0.05% octylglucoside) to 5-carboxyflourescein-conjugated AVPdi-Phe-NH2 (AVP-diPhe-FAM) at 5 nM final concentration.
The reactions were read after an incubation time of 10 minutes at room temperature with standard cut-off filters for the fluorescein fluorophore (λex=485 nm; λem=530 nm) in 96-well black HE96 plates (Molecular Devices Corp.). Fluorescence values were plotted as a function of the protein concentration, and the IC50s were obtained by fitting the data to a 4-parameter equation using Kaleidograph software (Synergy software, Reading, Pa.). Competition experiments were performed by addition of the MLXBIR3SG at 30 nM to wells containing 5 nM of the AVP-diPhe-FAM probe as well as 1:3 serial dilutions of antagonist compounds starting at a concentration of 300 μM in the polarization buffer. Samples were read after a 10-minute incubation. Fluorescence polarization values were plotted as a function of the antagonist concentration, and the IC50 values were obtained by fitting the data to a 4-parameter equation using Kaleidograph software (Synergy software, Reading, Pa.). Inhibition constants (Ki) for the antagonists were determined from the IC50 values.
A general note: In fluorescence polarisation assays a small probe gives low polarisation when free and higher when bound to something large.
What is called Ki is the dissociation constant of the complex between target and ligand, obtained from inhibition or displacement. For the molecule `C[C@H](NCCO)C(=O)N[C@H](C(=O)N1CCC[C@H]1c1nc2c(-c3ccccc3)nccc2s1)c1ccccc1` [compound 54], the Ki is 0.0556 µM.
The result for `C[C@@H](NCCO)C(=O)N[C@H](C(=O)N1CCC[C@H]1c1nc2c(-c3ccccc3)nccc2s1)C1CCCCC1` [compound 48] reads 7.87 µM; that for `C[C@H](NCCO)C(=O)N[C@H](C(=O)N1CCC[C@H]1c1nc2c(-c3ccccc3)ccnc2s1)C1CCCCC1` [compound 60], 0.145 µM.
Take `CN[C@@H](C)C(=O)N[C@H](C(=O)N1CCC[C@H]1c1nc2c(-c3ccccc3)ncnc2s1)C1CCN(C(=O)COC)CC1` [compound 56]: the Ki worked out at 0.0338 µM.
